Laboratory results: patent US20110311613A1, “TOPICAL FORMULATIONS OF FLAP INHIBITORS FOR THE TREATMENT OF DERMATOLOGICAL CONDITIONS” (AMIRA PHARMACEUTICAL, INC., priority 2008, published 2011)
Read-outs that look alike come from different tables or passages of the source.

Experiments:
[1] = Solubility in topical formulation (75% propylene glycol, 15% transcutol, 10% water); format: physicochemical; conditions: aqueous with cosolvent or surfactant or cyclodextrin, solution of 75% propylene glycol, read-out: soluble in topical formulation
Method: In one aspect, a topical formulation of a FLAP inhibitor compound is prepared by mixing a FLAP inhibitor compound with propylene glycol, transcutol and water. In one aspect, the topical formulation includes a FLAP inhibitor compound (10 mg/mL) in a solution of 75% propylene glycol, 15% transcutol, 10% water.
Using this formulation, the following FLAP inhibitor compounds are all soluble at 10 mg/mL: Compound A (Na salt), Compound B (Na salt), Compound C (acid and Na salt), Compound F (Na salt), Compound G (Na salt), Compound I (acid), and Compound J (Na salt).

[2] = Rat abraded skin model, skin penetration (plasma levels) following dermal administration; format: in vivo; conditions: for plasma levels (PK analysis): abraded skin, samples at 2, 4, 24 and 72 hours; for concentration at 24 h: male, Sprague Dawley, plasma, topical, 20 mg, 2 mL of 10 mg/mL solution on abraded skin, occluded 24 hours, read-out: plasma levels at the 24 hour time point
Method: (§1) Male Sprague Dawley Rats (n=3 per group) were shaved on the back such that approximately 20% of the body area surface was exposed. The shaved skin was mildly abraded then 2 mL of a 10 mg/mL solution of the test compound in a formulation containing 75% propylene glycol, 15% transcutol, 10% water was applied to the abraded skin. The site of administration was occluded for 24 hours after which time the skin was cleansed of excess material (if any). Plasma samples were drawn from each rat at 2, 4, 24 and 72 hours.

Leukotriene B4 (LTB4) = assay: Mouse arachidonic acid-induced ear inflammation model, leukotriene analysis (EIA) of LTB4; format: in vivo
Method: (§2) A mouse arachidonic acid (AA)—induced ear inflammation model was utilized to determine the extent of inhibition of ear swelling and leukotriene (LT) production by oral and topical application of a 5-lipoxygenase-activating protein (FLAP) inhibitor. Methods were adapted from Byrum et al., J Exp Med. 1997 Mar. 17; 185(6):1065-75).
(§3) Female CD-1 mice (weighing 18-20 grams) were administered compound orally (30 mg/kg in 10 ml/kg of 0.5% methylcellulose vehicle) or topically at concentrations of 0.01-10% by weight to the experimental ear and vehicle was applied to the opposite control ear. Four hours following compound administration a […] aliquot of a 4 mg/ml solution of AA in ethanol was applied to the experimental (right) ear and vehicle (ethanol) was applied to the control (left) ear. Thirty minutes later mice were placed into an enclosed Plexiglas chamber and exposed to CO2 for a period of 1-2 minutes or until breathing ceased. Ear biopsies were then taken for assessment of inflammation and leukotriene levels.
(§4) The ear punch was placed into a tris buffer containing 0.01% triton x and homogenized using a polytron probe homogenizer. The sample was then centrifuged at 10,000×g for 10 minutes at 4° C. Leukotriene B4 (LTB4) and cysteinyl leukotriene (CysLT) concentrations in the supernatant were determined by enzyme-immunoassay (EIA).

[3] = tested on: arachidonic acid-induced ear inflammation; assay: Mouse arachidonic acid-induced ear inflammation model, ear inflammation (ear punch weight); format: in vivo
Method: as §2, §3
An eight mm ear punch was taken from a similar location of each experimental ear and each control ear and weighed. The extent of inflammation was determined by the difference in weight between the experimental ear and control ear [experimental ear (mg)-control ear (mg)]. A typical response for this assay is in the range of 4 and 12 mg increase in weight. Ear punches were then frozen for later assessment of leukotrienes.

[4] = tested on: cysteinyl leukotriene (CysLT); assay: Mouse arachidonic acid-induced ear inflammation model, leukotriene analysis (EIA) of CysLT; format: in vivo
Method: as §2, §3, §4

Male Sprague Dawley Rats = assay: Rat abraded skin model, acute irritancy (Draize scoring) following dermal administration; format: in vivo; conditions: 2 mL of 10 mg/mL solution on abraded skin, occluded 24 hours; erythema, edema scored at 24, 48 and 72 hours; each animal
Method: as §1
Visual analysis of erythema, edema or other dermal findings were recorded prior to dosing then at 24, 48 and 72 hours. Scoring followed a Draize protocol.

[5] = mouse, in vivo, 10 mg/kg
Method: (§5) BALB/c mice were divided into groups and acclimatized in cages for 24 hours (day 0). The control group was exposed to air and the test group was exposed to smoke from seven unfiltered cigarettes per day for 8 days (day 1 to day 8). […] On day 14, bronchioalveolar lavage fluid (BALF) is tested for influx of cells, cytokines, chemokines (e.g., KC, IL-17, MIP-2, IL-6), mucin, and/or proteins. Lung histology is also examined.

[6] = Trough plasma concentration in subchronic smoking mouse model; conditions: BALB/c mice, combination DP2 receptor antagonist + FLAP inhibitor
Method: as §5

Question: With `COc1cnc(-c2ccc(Cn3c(CC(C)(C)C(=O)O)c(SC(C)(C)C)c4cc(OCc5ccc(C)cn5)ccc43)cc2)nc1` [Compound A, 3-[3-tert-Butylsulfanyl-1-[4-(5-methoxy-pyrimidin-2-yl)-benzyl]-5-(5-methyl-pyridin-2-ylmethoxy)-1H-indol-2-yl]-2,2-dimethyl-propionic acid] as the molecule, how does the solubility [1] read?
Answer: ≥ 10000 µg/mL

Question: What about the “plasma levels (PK analysis)” value [2] of the same molecule?
Answer: measurable plasma levels

Question: And the concentration at 24 h [2]?
Answer: < 110 ng/mL

Question: And the “reduction of LTB4 levels” value (Leukotriene B4 (LTB4); applied dermally 4 hours prior to AA treatment (FIG. 3B))?
Answer: about 55%

Question: And the “reduction of LTB4 levels” value (Leukotriene B4 (LTB4); oral, 30 mg/kg, 4 hours prior to AA treatment (FIG. 2B))?
Answer: about 33%

Question: And the “reduction of inflammation by measure of change in ear weight” value ([3]; applied dermally 4 hours prior to AA treatment (FIG. 3A))?
Answer: about 60%

Question: And the “reduction of inflammation by measure of change in ear weight” value ([3]; oral, 30 mg/kg, 4 hours prior to AA treatment (FIG. 2A))?
Answer: about 65%

Question: And the “topical concentration of maximal activity” value ([3]; topical concentrations of 0.01-10%, all three endpoints (ear weight, LTB4, CysLT))?
Answer: 0.1%

Question: What about the “reduction of CysLT levels” value ([4]; applied dermally 4 hours prior to AA treatment (FIG. 3C)) of the same molecule?
Answer: about 37%

Question: And the “reduction of CysLT levels” value ([4]; oral, 30 mg/kg, 4 hours prior to AA treatment (FIG. 2C))?
Answer: about 57%

Question: And the Draize score (Male Sprague Dawley Rats)?
Answer: 0

Question: Which results are given for `COc1cnc(-c2ccc(Cn3c(CC(C)(C)C(=O)O)c(SC(C)(C)C)c4cc(OC[C@@H]5Cc6ccccc6N5C(C)=O)ccc43)cc2)nc1` [Compound C, 3-{5-((S)-1-Acetyl-2,3-dihydro-1H-indol-2-ylmethoxy)-3-tert-butylsulfanyl-1-[4-(5-methoxy-pyrimidin-2-yl)-benzyl]-1H-indol-2-yl}-2,2-dimethyl-propionic acid]?
Answer: solubility [1]: ≥ 10000 µg/mL; plasma levels (PK analysis) [2]: measurable plasma levels; concentration at 24 h [2]: < 110 ng/mL; Draize score (Male Sprague Dawley Rats): 0

Question: With `CC(=O)N1CCC[C@H]1COc1ccc2c(c1)c(SC(C)(C)C)c(CC(C)(C)C(=O)O)n2Cc1ccc(Cl)cc1` [Compound I, 3-[5-((S)-1-Acetyl-pyrrolidin-2-ylmethoxy)-3-tert-butylsulfanyl-1-(4-chloro-benzyl)-1H-indol-2-yl]-2,2-dimethyl-propionic acid] as the molecule, how does the solubility [1] read?
Answer: ≥ 10000 µg/mL

Question: What about the “plasma levels (PK analysis)” value [2] of the same molecule?
Answer: measurable plasma levels

Question: And the concentration at 24 h [2]?
Answer: < 110 ng/mL

Question: What about the Draize score (Male Sprague Dawley Rats) of the same molecule?
Answer: 0

Question: With `CC(C)(C)Sc1c(CC(C)(C)C(=O)O)n(Cc2ccc(-c3ccc(F)cn3)cc2)c2ccc(OCc3ccccn3)cc12` [Compound J, 3-[3-tert-butylsulfanyl-1-[4-(5-fluoro-pyridin-2-yl)-benzyl]-5-(pyridin-2-ylmethoxy)-1H-indol-2-yl]-2,2-dimethyl-propionic acid] as the molecule, how does the solubility [1] read?
Answer: ≥ 10000 µg/mL

Question: And the “plasma levels (PK analysis)” value [2]?
Answer: measurable plasma levels

Question: What about the concentration at 24 h [2] of the same molecule?
Answer: < 110 ng/mL

Question: And the Draize score (Male Sprague Dawley Rats)?
Answer: 0

Question: Which “Plasma concentration @ trough” value [5] does the source give for `CCN(Cc1cc(C(F)(F)F)ccc1-c1cncc(CC(=O)O)c1)C(=O)OCc1ccccc1` [DP2 receptor antagonist] here?
Answer: <10 nM

Question: Which “Plasma concentration @ trough” value [6] does the source give for `COc1ccc(-c2ccc(Cn3c(CC(C)(C)C(=O)O)c(SC(C)(C)C)c4cc(OCc5ccc(C)cn5)ccc43)cc2)cn1` [FLAP inhibitor, 3-(3-(tert-butylthio)-1-(4-(6-methoxypyridin-3-yl)benzyl)-5-((5-methylpyridin-2-yl)methoxy)-1H-indol-2-yl)-2,2-dimethylpropanoic acid] here?
Answer: 136 (FLAP inhibitor) nM

Question: Which results are given for `CCC(CC)(Cc1c(SC(C)(C)C)c2cc(OCc3ccc(C)cn3)ccc2n1Cc1ccc(-c2ncc(OC)cn2)cc1)C(=O)O` [Compound G, 2-[3-tert-Butylsulfanyl-1-[4-(5-methoxy-pyrimidin-2-yl)-benzyl]-5-(5-methyl-pyridin-2-ylmethoxy)-1H-indol-2-ylmethyl]-2-ethyl-butyric acid]?
Answer: solubility [1]: ≥ 10000 µg/mL; plasma levels (PK analysis) [2]: measurable plasma levels; concentration at 24 h [2]: < 110 ng/mL; Draize score (Male Sprague Dawley Rats): 0

Question: Which results are given for `CC(C)(C)Sc1c(CC(C)(C)C(=O)O)n(Cc2ccc(-c3ccc(F)cn3)cc2)c2ccc(OCc3ccc4ccccc4n3)cc12` [Compound F, 3-[3-tert-Butylsulfanyl-1-[4-(5-fluoro-pyridin-2-yl)-benzyl]-5-(quinolin-2-ylmethoxy)-1H-indol-2-yl]-2,2-dimethyl-propionic acid]?
Answer: solubility [1]: ≥ 10000 µg/mL; plasma levels (PK analysis) [2]: measurable plasma levels; concentration at 24 h [2]: < 110 ng/mL; Draize score (Male Sprague Dawley Rats): 0

Question: Which solubility [1] does the source give for `COc1cnc(-c2ccc(Cn3c(CC(C)(C)C(=O)O)c(SC(C)(C)C)c4cc(OCc5cnc(C)cn5)ccc43)cc2)nc1` [Compound B, 3-[3-tert-Butylsulfanyl-1-[4-(5-methoxy-pyrimidin-2-yl)-benzyl]-5-(5-methyl-pyrazin-2-ylmethoxy)-1H-indol-2-yl]-2,2-dimethyl-propionic acid] here?
Answer: ≥ 10000 µg/mL

Question: What about the “plasma levels (PK analysis)” value [2] of the same molecule?
Answer: measurable plasma levels

Question: And the concentration at 24 h [2]?
Answer: < 110 ng/mL

Question: And the Draize score (Male Sprague Dawley Rats)?
Answer: 0
